The test system of the experiment is JAK2 pathway (P-STAT5 in TF-1 human erythroleukemia cells + EPO). The experiment in a line: P-STAT5 TF-1+Erythropoietin (EPO) assay. The class given is cell-based. The settings on record: TF-1 cells, 30 minutes compound, EPO 30 min, IC50 by four-parameter fit, read-out: Cellular (JAK2 PSTAT5 TF1 + EPO). The procedure: TF-1 human erythroleukemia cells (ATCC®; Manassas, VA; Catalog No. CRL-2003™) were grown in Roswell Park Memorial Institute (RPMI) medium supplemented with 10% heat-inactivated fetal bovine serum (FBS), 2 ng/mL granulocyte-macrophage colony-stimulating factor, 1× non-essential amino acids (NEAA), and 1 mM sodium pyruvate. The day before the assay, the cultures were transferred to Opti-MEM™, 1×NEAA, 1 mM sodium pyruvate, and 0.5% charcoal-stripped FBS (starve medium). Inhibitor stock solutions (5 mM in DMSO) were serially diluted 1:2 in DMSO to generate a 10-point concentration titration (at 500× test concentration), which was further diluted by a 50-fold dilution in Assay Medium (RPMI containing 1×NEAA and 1 mM sodium pyruvate) to generate a 10× concentration titration (in 2% DMSO). The cells (300,000 cells/well in 35 μL of Assay Medium) were seeded in 384-well Greiner plates. Diluted inhibitor at 10× concentration (5 μL) was added to the cells and the plates were incubated for 30 minutes at 37° C. in a humidified incubator. Cells were stimulated with the human recombinant cytokine at the respective EC90 concentrations, as previously determined for each individual lot. For the phosphorylated signal transducer and activator of transcription 6 (P-STAT6) TF-1+Interleukin-13 (IL-13) assay, 10 μL of 250 ng/mL IL-13 (R&D Systems; Minneapolis, MN) was added to the cells, which were then incubated for 10 minutes at 37° C. For the P-STAT5 TF-1+Erythropoietin (EPO) assay, 10 μL of 110 IU/mL EPO (Gibco Life Technologies, Catalog No. PHC2054) was added to the cells, which were then incubated for 30 min at 37° C. For both assays, the incubation was followed by addition to the cells of 5 μL of ice-cold 10× cell lysis buffer (Cell Signaling Technologies; Danvers, MA; Catalog No. 9803S) containing 1 mM phenylmethylsulfonyl fluoride (PMSF). Assay plates were frozen at −80° C. for a minimum of 1 hour. In the IL-13 assay, P-STAT6 was measured by coating goat anti-rabbit (GAR) plates (Meso Scale Discovery [MSD]; Rockville, MD; Catalog No. MSD L21RA-1) with rabbit anti-human total STAT6 antibody (Cell Signaling Technologies; Catalog No. 9362S), incubating the cell lysates in the coated plates overnight at 4° C., and then detecting with mouse anti-P-STAT6 (Tyr641) Clone 16E12 antibody (MilliporeSigma; Burlington, MA; Catalog No. 05-590, custom labeled by MSD with SULFO-tag) using standard MSD plate processing, washing, and detection protocols. In the EPO assay, P-STAT5 was detected using the phospho-STAT5a,b Whole Cell Lysate Kit (MSD; Catalog No. K150IGD-1). The electrochemiluminescence (ECL) signal of wells was read on the MESO SECTOR S600 (MSD) reader.
Data analysis was performed by subtracting the negative control (cytokine stimulated and 20 μM control inhibitor-treated cells) mean ECL value from the ECL value of all wells, determining percent of control for test compound well ECL values relative to the positive control (cytokine stimulated and DMSO-treated cells) mean ECL value, and determining the IC50 for test compounds with a four-parameter logistic fit model as shown in Equation 4.

Read-outs that look alike come from different tables or passages of the source.

As to `O=C(Nc1cn(Cc2nnn(C3CCNC3)n2)nc1-c1cc(OC(F)F)ccc1OC(F)F)c1cnn2cccnc12` (single isomer, unassigned) [Example 27, N-[3-[2,5-bis(difluoromethoxy)phenyl]-1-[(2-pyrrolidin-3-yltetrazol-5-yl)methyl]pyrazol-4-yl]pyrazolo[1,5-a]pyrimidine-3-carboxamide], the IC50 (Homo sapiens, TF-1, 0.5 h) turned out to be 17 nM.

In the case of `O=C(Nc1cn(Cc2nnn(C3CCNC3)n2)nc1-c1cc(OC(F)F)ccc1OC(F)F)c1cnn2cccnc12` (single isomer, unassigned) [Example 28, N-[3-[2,5-bis(difluoromethoxy)phenyl]-1-[(2-pyrrolidin-3-yltetrazol-5-yl)methyl]pyrazol-4-yl]pyrazolo[1,5-a]pyrimidine-3-carboxamide], the IC50 worked out at 19 nM.

On to `CN1CCC(N2CC(n3nnc(Cn4cc(NC(=O)c5cnn6cccnc56)c(-c5cc(OC(F)F)ccc5OC(F)F)n4)n3)C2)C1` (single isomer, unassigned) [Example 72, N-[3-[2,5-bis(difluoromethoxy)phenyl]-1-[[2-[1-(1-methylpyrrolidin-3-yl)azetidin-3-yl]tetrazol-5-yl]methyl]pyrazol-4-yl]pyrazolo[1,5-a]pyrimidine-3-carboxamide], for which, under “Homo sapiens, TF-1, 0.5 h”, the IC50 was found to be 51 nM.

`CN1CC(n2nnc(Cn3cc(NC(=O)c4cnn5cccnc45)c(-c4cc(Cl)ccc4OC(F)F)n3)n2)C1` [Example 7, N-[3-[5-chloro-2-(difluoromethoxy)phenyl]-1-[[2-(1-methylazetidin-3-yl)tetrazol-5-yl]methyl]pyrazol-4-yl]pyrazolo[1,5-a]pyrimidine-3-carboxamide]: under “Homo sapiens, TF-1, 0.5 h”, the IC50 came out at 13 nM.

For `O=C(Nc1cn(Cc2nnn(C3CNC3)n2)nc1-c1cc(Cl)ccc1OC(F)F)c1cnn2cccnc12` [Example 8, N-[1-[[2-(azetidin-3-yl)tetrazol-5-yl]methyl]-3-[5-chloro-2-(difluoromethoxy)phenyl]pyrazol-4-yl]pyrazolo[1,5-a]pyrimidine-3-carboxamide], where the note is “Homo sapiens, TF-1, 0.5 h”, the IC50 is 13 nM.

As to `CN1CC(n2nnc(Cn3cc(NC(=O)c4cnn5cccnc45)c(-c4cc(OC(F)F)ccc4OC(F)F)n3)n2)C1` [Example 10, N-[3-[2,5-bis(difluoromethoxy)phenyl]-1-[[2-(1-methylazetidin-3-yl)tetrazol-5-yl]methyl]pyrazol-4-yl]pyrazolo[1,5-a]pyrimidine-3-carboxamide], the IC50 (Homo sapiens, TF-1, 0.5 h) was 5.1 nM.

As to `O=C(Nc1cn(Cc2nnn(C3CNC3)n2)nc1-c1cc(OC(F)F)ccc1OC(F)F)c1cnn2cccnc12` [Example 11, N-[1-[[2-(azetidin-3-yl)tetrazol-5-yl]methyl]-3-[2,5-bis(difluoromethoxy)phenyl]pyrazol-4-yl]pyrazolo[1,5-a]pyrimidine-3-carboxamide], the IC50 (Homo sapiens, TF-1, 0.5 h) stood at 10 nM.

For the molecule `O=C(Nc1cn(Cc2nnnn2C2CNC2)nc1-c1cc(OC(F)F)ccc1OC(F)F)c1cnn2cccnc12` [Example 12, N-[1-[[1-(azetidin-3-yl)tetrazol-5-yl]methyl]-3-[2,5-bis(difluoromethoxy)phenyl]pyrazol-4-yl]pyrazolo[1,5-a]pyrimidine-3-carboxamide], the IC50 (Homo sapiens, TF-1, 0.5 h) turned out to be 51 nM.

As to `NCCn1nnc(Cn2cc(NC(=O)c3cnn4cccnc34)c(-c3cc(OC(F)F)ccc3OC(F)F)n2)n1` [Example 13, N-[1-[[2-(2-aminoethyl)tetrazol-5-yl]methyl]-3-[2,5-bis(difluoromethoxy)phenyl]pyrazol-4-yl]pyrazolo[1,5-a]pyrimidine-3-carboxamide], the IC50 (Homo sapiens, TF-1, 0.5 h) came to 10 nM.

With `NCCn1nnnc1Cn1cc(NC(=O)c2cnn3cccnc23)c(-c2cc(OC(F)F)ccc2OC(F)F)n1` [Example 14, N-[1-[[1-(2-aminoethyl)tetrazol-5-yl]methyl]-3-[2,5-bis(difluoromethoxy)phenyl]pyrazol-4-yl]pyrazolo[1,5-a]pyrimidine-3-carboxamide], under “Homo sapiens, TF-1, 0.5 h”, the IC50 came out at 46 nM.

As to `CN1CC(n2nnnc2Cn2cc(NC(=O)c3cnn4cccnc34)c(-c3cc(Cl)ccc3OC(F)F)n2)C1` [Example 15, N-[3-[5-chloro-2-(difluoromethoxy)phenyl]-1-[[1-(1-methylazetidin-3-yl)tetrazol-5-yl]methyl]pyrazol-4-yl]pyrazolo[1,5-a]pyrimidine-3-carboxamide], the IC50 (Homo sapiens, TF-1, 0.5 h) amounted to 7.2 nM.

As to `CN(C)CCn1nnc(Cn2cc(NC(=O)c3cnn4cccnc34)c(-c3cc(OC(F)F)ccc3OC(F)F)n2)n1` [Example 16, N-[3-[2,5-bis(difluoromethoxy)phenyl]-1-[[2-[2-(dimethylamino)ethyl]tetrazol-5-yl]methyl]pyrazol-4-yl]pyrazolo[1,5-a]pyrimidine-3-carboxamide], under “Homo sapiens, TF-1, 0.5 h”, the IC50 was determined as 12 nM.

Turning to `CN(C)CCn1nnnc1Cn1cc(NC(=O)c2cnn3cccnc23)c(-c2cc(OC(F)F)ccc2OC(F)F)n1` [Example 17, N-[3-[2,5-bis(difluoromethoxy)phenyl]-1-[[1-[2-(dimethylamino)ethyl]tetrazol-5-yl]methyl]pyrazol-4-yl]pyrazolo[1,5-a]pyrimidine-3-carboxamide], where the note is “Homo sapiens, TF-1, 0.5 h”, the IC50 was determined as 9.7 nM.

As to `O=C(Nc1cn(Cc2nnn(C3CCNCC3)n2)nc1-c1cc(OC(F)F)ccc1OC(F)F)c1cnn2cccnc12` [Example 18, N-[3-[2,5-bis(difluoromethoxy)phenyl]-1-[[2-(4-piperidyl)tetrazol-5-yl]methyl]pyrazol-4-yl]pyrazolo[1,5-a]pyrimidine-3-carboxamide], the IC50 (Homo sapiens, TF-1, 0.5 h) was found to be 19 nM.

Take `CNCCn1nnnc1Cn1cc(NC(=O)c2cnn3cccnc23)c(-c2cc(OC(F)F)ccc2OC(F)F)n1` [Example 19, N-[3-[2,5-bis(difluoromethoxy)phenyl]-1-[[1-[2-(methylamino)ethyl]tetrazol-5-yl]methyl]pyrazol-4-yl]pyrazolo[1,5-a]pyrimidine-3-carboxamide]: the IC50 (Homo sapiens, TF-1, 0.5 h) is 21 nM.

For the molecule `CNCCn1nnc(Cn2cc(NC(=O)c3cnn4cccnc34)c(-c3cc(OC(F)F)ccc3OC(F)F)n2)n1` [Example 20, N-[3-[2,5-bis(difluoromethoxy)phenyl]-1-[[2-[2-(methylamino)ethyl]tetrazol-5-yl]methyl]pyrazol-4-yl]pyrazolo[1,5-a]pyrimidine-3-carboxamide], the IC50 (Homo sapiens, TF-1, 0.5 h) was 15 nM.

Regarding `CN(C)CCN1CC(n2nnc(Cn3cc(NC(=O)c4cnn5cccnc45)c(-c4cc(OC(F)F)ccc4OC(F)F)n3)n2)C1` [Example 21, N-[3-[2,5-bis(difluoromethoxy)phenyl]-1-[[2-[1-[2-(dimethylamino)ethyl]azetidin-3-yl]tetrazol-5-yl]methyl]pyrazol-4-yl]pyrazolo[1,5-a]pyrimidine-3-carboxamide], the IC50 (Homo sapiens, TF-1, 0.5 h) amounted to 32 nM.

As for `CN1CCC(n2nnc(Cn3cc(NC(=O)c4cnn5cccnc45)c(-c4cc(OC(F)F)ccc4OC(F)F)n3)n2)CC1` [Example 22], the IC50 (Homo sapiens, TF-1, 0.5 h) came to 18 nM.

As for `CN1CC(n2nnc(Cn3cc(NC(=O)c4cnn5cccnc45)c(-c4cc(C5CC5)ccc4OC(F)F)n3)n2)C1` [Example 23, N-[3-[5-cyclopropyl-2-(difluoromethoxy)phenyl]-1-[[2-(1-methylazetidin-3-yl)tetrazol-5-yl]methyl]pyrazol-4-yl]pyrazolo[1,5-a]pyrimidine-3-carboxamide], the IC50 (Homo sapiens, TF-1, 0.5 h) is 8.2 nM.

On to `CN1CCC(n2nnnc2Cn2cc(NC(=O)c3cnn4cccnc34)c(-c3cc(OC(F)F)ccc3OC(F)F)n2)C1` (centres unmarked) [Example 26, N-[3-[2,5-bis(difluoromethoxy)phenyl]-1-[[1-(1-methylpyrrolidin-3-yl)tetrazol-5-yl]methyl]pyrazol-4-yl]pyrazolo[1,5-a]pyrimidine-3-carboxamide], for which, under “Homo sapiens, TF-1, 0.5 h”, the IC50 amounted to 18 nM.
